In US20110293600A1, “Anticancer Composition Comprising Antitumor Agent and Substance Having Inhibitory Effects on L1CAM Activity and Expression” (KOREA RESEARCH INSTITUTE OF BIOSCIENCE AND BIOTECHNOLOGY, priority 2008, published 2011):

Assays:
[1] = test system: L1CAM mRNA in cholangiocarcinoma cell lines (SCK); experiment: Detection of mRNA expression of L1CAM by RT-PCR; assay type: cell-based; settings: SCK transduced with siRNA, cultured 72 hours; compared to siRNA non-specific for L1CAM; FIG. 5(A) upper
Method: In order to knock down expression of L1CAM in cholangiocarcinoma cell lines (SCK), the cells were transduced with siRNA (5′-[…]-3′, Sequence ID No. 1) specific for L1CAM and siRNA (5′-CAGTCGCGTTTGCGACTGG-3′, Sequence ID No. 2) non-specific for L1CAM and then cultured for 72 hours. In order to isolate the total RNA of the cultured cholangiocarcinoma cells, the cells were treated with a 1 ml trizol reagent (Invitrogen, Inc.) at room temperature for 5 minutes. 0.2 ml of chloroform was added to the cells, and the mixture was violently shaken about 15 times and allowed to react at room temperature for 3 minutes. The resulting solution was centrifuged at 4° C. and 14,000 rpm for […], 400 μl of the supernatant was transferred to another tube and the same amount of isopropanol was added to the residue and the mixture was allowed to react at room temperature for 10 minutes. The reaction solution was centrifuged at 4° C. at 14,000 rpm for 15 minutes, the supernatant was discarded, and the residue was washed with 75% ethanol. oligo(d)T, dNTP, RNase inhibitor and reverse transcriptase were added to 2 ug of the RNA thus extracted and the mixture was allowed to react at 42° C. for one hour to synthesize cDNA. […]

[2] = test system: L1CAM protein in cholangiocarcinoma cell lines (SCK); experiment: Detection of protein expression of L1CAM using Western blotting; assay type: cell-based; settings: SCK transduced with siRNA, cultured 72 hours; compared to siRNA non-specific for L1CAM; FIG. 5(A) lower
Method: In order to knock down expression of L1CAM in cholangiocarcinoma cell lines (SCK), the cells were transduced with siRNA (5′-[…]-3′, Sequence ID No. 1) specific for L1CAM and siRNA (5′-CAGTCGCGTTTGCGACTGG-3′, Sequence ID No. 2) non-specific for L1CAM and then cultured for 72 hours and expression of L1CAM was detected in protein level using Western blotting. In order to isolate the total protein of cell lines treated with siRNA, the cell lines were treated with 500 μl of cell lysis solution (RIPA buffer), and the proteins thus obtained were isolated in 10% SDS-PAGE, transferred to a nitrocellulose membrane and subjected to Western blotting. The nitrocellulose membrane was allowed to react in PBST (PBS+0.1% Tween 20) buffer containing 5% skim milk for one hour and washed two or more times with the PBST buffer. Anti-L1CAM antibody (A10-A3) was added as a primary antibody to the reacted nitrocellulose membrane, followed by allowing to react for 2 hours. The resulting membrane was washed with the PBST buffer five times and reacted with anti-mouse IgG HRP (horseradish peroxidase) conjugate (1:5000 Sigma) for one hour. The reaction solution was washed five times with the PBST buffer and was colored with enhanced chemiluminescence reagent (ECL) (Amersham biosciences) as a detection reagent.

[3] = test system: SCK cells subcutaneously transplanted; experiment: Cancer growth in mouse xenograft model; assay type: in vivo, Nude mice Balb/c nu/nu; settings: Example 3, FIG. 2, A10-A3 10 mg/kg three times per week, cisplatin 3 mg/kg twice per week
Method: Nude mice Balb/c nu/nu were purchased via Central Lab. Animal Inc. from Japan SLC. The mice were 6 to 8 weeks old, weighed 18 to 22 g and acclimated for one week in a lab of the Korean Research Institute of Bioscience and Biotechnology. SCK cells (3×10^7) were subcutaneously transplanted into 40 mice, and were randomly divided into four groups when grown to a tumor mass having a size of 100 to 200 mm^3 after one week. A10-A3 was administered to the mice at a dose of 10 mg/kg three times per week. Cisplatin was administered to the mice at a dose of 3 mg/kg twice per week. As the control group, mIgG was administered at the same level, instead of A10-A3 and saline was administered at the same level, instead of cisplatin. The weight of nude mice and tumors were measured three times per week.

| Compound | total amount of L1CAM expressed (mRNA) [1] | total amount of protein expressed (L1CAM) [2] | proliferation inhibition (tumor growth) [3] |
| --- | --- | --- | --- |
| siRNA specific for L1CAM: siRNA (5′-GCCAATGCCTACATCTACGTT-3′, Sequence ID No. 1) specific for L1CAM (listed as DNA, chemistry not given here) | decrease | decrease | – |
| N.N.[Cl][Pt][Cl] [cisplatin] | – | – | about 30% |
